System: severe retinopathy (tractional retinal detachment, IRMA) in SDT rats
Assay: Histopathological examination and fluorescein fundus angiography of severe retinopathy in spontaneously diabetic Torii (SDT) rats
Assay type: in vivo, rat
Experimental: Diabetes mellitus occurs in spontaneously diabetic Torii (SDT) rats at about 20 weeks of age. Accordingly, blood glucose levels were confirmed at about 25 weeks of age, and rats showing an increase in blood glucose level (at least 300 mg/dl) were used in the experiment. The male SDT rats confirmed to develop diabetes mellitus were divided into two groups, that is, 1) untreatment control (n=14) group and 2) SNK-860 treatment (16 mg/kg/day, n=17)group. The compound was mixed with usual feed (CRF-1: Oriental Yeast Co., Ltd.) and then administered into the rats. The CRF-1 solid feed not containing the compound was freely ingested by the control group, while CRF-1 solid feed containing 0.01333% SNK-860 was freely ingested by the SNK-860 treatment group. At 36 weeks of age and at 52 to 58 weeks of age, the rats were anesthetized and then the eyeballs were excised and used in histopathological examination. The SNK-860-containing feed was prepared in the following manner. SNK-860 was weighed and mixed well with a small amount of CRF-1 powdered feed. Thereafter, additional powdered feed was added thereto, stirred well and solidified. The dose established this time was 16 mg/kg. The concentration of this agent in the feed, calculated on the basis of the established dose, the weight of the rat and the amount of the feed ingested for 1 day, was 0.01333%. The histopathological examination was carried out in the following manner. The rat was anesthetized with ether and by intraperitoneal administration of Nembutal, and then the eyeballs were excised. The excised eyeballs were placed in a mixed solution (1:1:2) consisting of 4% glutaraldehyde, 10% neutral formalin and a phosphate buffer (pH 7.2, 0.3 mol/l). After 60 minutes, the eyeball was cut into halves under a stereoscopic microscope and then stored overnight at 4° C. The next morning, the eyeballs were embedded in a usual manner into paraffin to prepare a transverse section containing a bundle of optic nerves. The section was stained with hematoxylin-eosin. Fluorescein fundus angiography was carried out by opening the chest under the same anesthesia, injecting fluorescein dextran (Sigma, 50 mg/1 ml PBS) into the heart, and after 5 minutes, excising the eyeballs. That is, the retina was separated from the excised eyeball, spread on a slide glass to prepare a flat mounted specimen of the retina, then observed with a stereoscopic fluorescent microscope and photographed to evaluate retinopathy. When retinal fold (retinal detachment) accompanied by thickening of the retina around optic nerve head was recognized in the pathological examination, or when fluorescence dye leakage accompanied by retinal vascular tortuosity and/or caliber variation around optic nerve head was recognized in the fluorescein fundus photography, it was assumed that severe retinopathy occurred in the SDT rat. […] That is, it was attempted to clarify the inhibitory effect on the onset by setting a longer duration of the disease.

[1] = male SDT rats, 16 mg/kg/day in feed from about 25 weeks of age, at 36 weeks of age, pathological examination

In the case of `NC(=O)[C@@H]1C[C@]2(NC(=O)NC2=O)c2cc(F)ccc2O1` [SNK-860, (2S,4S)-6-fluoro-2′,5′-dioxospiro[chroman-4,4′-imidazolidine]-2-carboxamide], the “inhibitory effect on the onset of tractional retinal detachment (in words)” value (SDT rats, long-term administration) is reported as “strongly inhibited”, the “onset of tractional retinal detachment (affected eyes/examined eyes)” value [1] is reported as 0/3 and the “onset of tractional retinal detachment (percent of eyes)” value [1] is reported as 0%. The “degree of onset of tractional retinal detachment or fluorescence dye leakage accompanied by retinal vascular tortuosity and/or caliber variation around optic nerve head (affected eyes/examined eyes)” value (male SDT rats, 16 mg/kg/day in feed from about 25 weeks of age, at 52-58 weeks of age, untreated 7/11 eyes) was 3/14 and the “degree of onset of tractional retinal detachment or fluorescence dye leakage accompanied by retinal vascular tortuosity and/or caliber variation around optic nerve head (percent of eyes)” value (male SDT rats, 16 mg/kg/day in feed from about 25 weeks of age, at 52-58 weeks of age, untreated 64%) was 21%.

From patent US20070299119A1, “Prophylactic or Therapeutic Agent for Severe Diabetic Retinopathy” (SANWA KAGAKU KENKYUSHO CO., LTD., priority 2004, published 2007)
